Data published in patent publication US20120172228A1, “ALCOHOL ALKOXYLATES AS ADJUVANTS FOR AGROCHEMICAL FORMULATIONS” (SYNGENTA CROP PROTECTION, LLC, priority 2009, published 2012).

How the values were obtained:
Assay type in all cases: in vivo
[1] = system: digitaria sanguinalis (DIGSA); assay: Adjuvant with herbicide nicosulfuron on DIGSA; conditions: nicosulfuron 30 or 60 g/ha; adjuvants 0.2% of spray water; 14 and 21 days after application
Description: (§1) In this example Sample 13 from Table 1 was compared to the oil adjuvant blend Turbocharge™. The herbicide fomesafen was applied to the weed species xanthium strumarium (XANST), setaria viridis (SETVI), abutilon theophrasti (ABUTH), and chenopodium album (CHEAL) at rates of 60 or 120 grams per hectare, using a laboratory track sprayer. Each experiment was replicated four times and the percentage damage to the weeds was assessed visually at time periods of 7, 14 and 21 days after application. Each adjuvant was applied at a rate of 0.5% of the volume of the spray water. Four effects were evaluated: pesticide rate (2 levels), adjuvant type (two levels), weed species (four levels) and days after application (three levels). […] The effect of each adjuvant was pulled out from the model and the least significant differences evaluated using a Student's t method. […]
(§2) In this example the butylene oxide adjuvant Sample 13 of Table 1 was compared to the commercial oil adjuvant blend Atplus™411F. […] Each experiment was replicated four times and the percentage damage to the weeds was assessed visually at time periods of 14 and 21 days after application. […]
(§3) In this example the responses of the butylene oxide adjuvants 13, 17, 19, 21, 22 and 23 of Table 1 were measured at an application rate of 0.2% of the volume of the spray solution used. […]

[2] = system: chenopodium album (CHEAL); assay: Adjuvant with herbicide nicosulfuron on CHEAL; conditions: nicosulfuron 30 or 60 g/ha; adjuvants 0.2% of spray water; 14 and 21 days after application
Description: as §1, §2, §3

[3] = system: lolium perenne (LOLPE), alopecurius myosuirides (ALOMY), avena fatua (AVEFA); assay: Adjuvant with herbicide pinoxaden, mean across three weed species (Example 22); conditions: pinoxaden 7.5, 11.25 or 15 g/ha; Sample 13 0.2%, TEHP 0.5%; 14 and 21 days
Description: In this example Sample 13 from Table 1 was compared to the oil adjuvant blend Turbocharge™. The herbicide fomesafen was applied to the weed species xanthium strumarium (XANST), setaria viridis (SETVI), abutilon theophrasti (ABUTH), and chenopodium album (CHEAL) at rates of 60 or 120 grams per hectare, using a laboratory track sprayer. Each experiment was replicated four times and the percentage damage to the weeds was assessed visually at time periods of 7, 14 and 21 days after application. Each adjuvant was applied at a rate of 0.5% of the volume of the spray water. Four effects were evaluated: pesticide rate (2 levels), adjuvant type (two levels), weed species (four levels) and days after application (three levels). A standard simple linear model was constructed to judge the significance of these effects. […] A model was fitted using multiple linear regression using the statistics package JMP (SAS group). The effect of each adjuvant was pulled out from the model and the least significant differences evaluated using a Student's t method. […]
In this example the response of the butylene oxide adjuvant 13 of Table 1 was measured at an application rate of 0.2% of the volume of the spray solution used. […] In each case the experiments were replicated four times and the percentage damage to the weeds was assessed visually at time periods of 14 and 21 days after application.

setaria viridis (SETVI) = assay: Adjuvant with herbicide nicosulfuron on SETVI; conditions: nicosulfuron 30 or 60 g/ha; adjuvants 0.2% of spray water; 14 and 21 days after application
Description: as §1, §2, §3

[4] = system: lolium perenne (LOLPE), alopecurius myosuirides (ALOMY), setaria viridis (SETVI), avena fatua (AVEFA); assay: Adjuvant with herbicide pinoxaden, track sprayer, mean across four weed species; conditions: pinoxaden 7.5 or 15 g/ha, 14 and 21 days

`CCCCC(CC)COP(=O)(OCC(CC)CCCC)OCC(CC)CCCC` (stereo not drawn) [TEHP, tris 2-ethylhexyl phosphate] was tested, and the “mean efficacy (percentage damage to the weeds), DIGSA” value [1] was 69.17; A %, the “mean efficacy (percentage damage to the weeds), CHEAL” value [2] was 68.33; B % and the “mean efficacy (percentage damage to the weeds), All weeds” value [3] was 59.91; A %. The “mean efficacy (percentage damage to the weeds), SETVI” value (setaria viridis (SETVI)) was 77.08; A %, the “Mean kill (%)” value ([4]; Sample 28 0.2%, TEHP 0.5%) was 92.6% and the “mean efficacy (percentage damage to the weeds), All weeds” value ([4]; butylene oxide adjuvants 0.2%, TEHP 0.5% v/v) was 75.63; A %.
